Among the data in ChEMBL document CHEMBL1153316, “Selectivity profiling of DegP substrates and inhibitors” (Bioorg Med Chem, 2009) are Activity values, retold here.

Experiment [1] deals with Escherichia coli. Kind of experiment: Inhibition of Escherichia coli degP assessed as specific activity at 0.5 mM. Also noted: scale not given: the % may be the effect or the level left.
Experiment [2] can be described thus: Inhibition of elastase assessed as specific activity at 0.5 mM. Also noted: scale not given: the % may be the effect or the level left.
Experiment [3] can be described thus: Inhibition of subtilisin assessed as specific activity at 0.5 mM. Also noted: scale not given: the % may be the effect or the level left.
Experiment [4] addresses Plasminogen (Homo sapiens) (UniProt P00747). The experiment can be described thus: Inhibition of plasmin assessed as specific activity at 0.5 mM. Also noted: scale not given: the % may be the effect or the level left.
A short description of experiment [5]: Inhibition of trypsin assessed as specific activity at 0.5 mM. Also noted: scale not given: the % may be the effect or the level left.
A short description of experiment [6]: Inhibition of chymotrypsin assessed as specific activity at 0.5 mM. Also noted: scale not given: the % may be the effect or the level left.
Experiment [7] deals with Prothrombin (Homo sapiens) (UniProt P00734). The experiment can be described thus: Inhibition of thrombin assessed as specific activity at 0.5 mM. Also noted: scale not given: the % may be the effect or the level left.
A short description of experiment [8]: Inhibition of kallikrein assessed as specific activity at 0.5 mM. Also noted: scale not given: the % may be the effect or the level left.
Experiment [9] concerns Escherichia coli. The experiment can be described thus: Inhibition of Escherichia coli degP assessed as residual proteolytic activity at 0.5 mM.
The nature of experiment [10]: Inhibition of elastase assessed as residual proteolytic activity at 0.5 mM.
A short description of experiment [11]: Inhibition of subtilisin assessed as residual proteolytic activity at 0.5 mM.
Experiment [12] has as its target Plasminogen (Homo sapiens) (UniProt P00747). Kind of experiment: Inhibition of plasmin assessed as residual proteolytic activity at 0.5 mM.
Experiment [13] can be described thus: Inhibition of trypsin assessed as residual proteolytic activity at 0.5 mM.
Experiment [14] in a line: Inhibition of chymotrypsin assessed as residual proteolytic activity at 0.5 mM.
In experiment [15] the target is Prothrombin (Homo sapiens) (UniProt P00734). Kind of experiment: Inhibition of thrombin assessed as residual proteolytic activity at 0.5 mM.
A short description of experiment [16]: Inhibition of kallikrein assessed as residual proteolytic activity at 0.5 mM.

Peptide text beside a SMILES is read from it.

Chain of Plasminogen (Homo sapiens) (P00747 97-580 limits assumed): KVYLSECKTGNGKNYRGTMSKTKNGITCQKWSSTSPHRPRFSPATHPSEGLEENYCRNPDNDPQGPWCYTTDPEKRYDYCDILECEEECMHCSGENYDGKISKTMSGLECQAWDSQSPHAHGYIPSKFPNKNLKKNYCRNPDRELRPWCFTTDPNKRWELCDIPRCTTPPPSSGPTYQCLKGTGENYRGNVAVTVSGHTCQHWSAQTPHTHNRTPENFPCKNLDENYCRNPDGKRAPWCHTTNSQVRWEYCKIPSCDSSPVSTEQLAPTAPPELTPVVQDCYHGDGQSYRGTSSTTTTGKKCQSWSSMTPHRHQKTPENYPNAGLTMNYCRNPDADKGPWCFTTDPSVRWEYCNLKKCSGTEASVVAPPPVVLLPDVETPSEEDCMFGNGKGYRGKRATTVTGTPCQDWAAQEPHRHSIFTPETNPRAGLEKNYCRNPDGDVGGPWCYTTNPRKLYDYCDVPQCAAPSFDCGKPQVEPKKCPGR
Chain of Plasminogen (Homo sapiens) (P00747 581-810 limits assumed): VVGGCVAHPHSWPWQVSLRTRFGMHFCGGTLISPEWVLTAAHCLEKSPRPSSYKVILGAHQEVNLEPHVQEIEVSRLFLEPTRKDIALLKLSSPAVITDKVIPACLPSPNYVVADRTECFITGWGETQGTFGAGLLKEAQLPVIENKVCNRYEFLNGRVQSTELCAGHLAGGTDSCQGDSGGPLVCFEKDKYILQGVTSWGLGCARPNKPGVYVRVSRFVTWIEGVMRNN

For the molecule `CC(C)C[C@H](NC(=O)CN)C(=O)N[C@@H](C)C(=O)N[C@H](C(=O)NCC(=O)N[C@@H](CC(N)=O)C(=O)N[C@H](C(=O)N[C@@H](CO)C(=O)N[C@H](C(=O)N[C@@H](C)C(=O)N[C@@H](CCC(=O)O)C(=O)N[C@@H](CC(C)C)C(=O)N[C@@H](CCC(N)=O)C(=O)N[C@@H](CC(=O)O)C(=O)N[C@@H](C)C(=O)N[C@H](C(=O)N1CCC[C@H]1C(=O)N[C@@H](C)C(=O)Nc1ccc([N+](=O)[O-])cc1)[C@H](C)O)[C@@H](C)O)C(C)C)[C@@H](C)O`, the Activity with Escherichia coli [1] was under 1%; in [2], 24%; in [3], 1520%; in experiment [4], under 1%; in experiment [5], under 1%; in experiment [6] it was 26%. Also, the Activity in experiment [7] and in [8] was under 1% in each case.

Regarding `CC(C)[C@H](NC(=O)[C@H](CCC(=O)O)NC(=O)[C@H](Cc1ccc(O)cc1)NC(=O)CNC(=O)[C@H](CO)NC(=O)[C@H](CC(=O)O)NC(=O)[C@H](Cc1cnc[nH]1)NC(=O)[C@H](CCCNC(=N)N)NC(=O)[C@H](Cc1ccccc1)NC(=O)[C@H](CCC(=O)O)NC(=O)[C@H](C)NC(=O)[C@H](CC(=O)O)NC(=O)[C@@H](N)CO)C(=O)Nc1ccc([N+](=O)[O-])cc1`, the Activity is under 1% in the experiment on Escherichia coli [1]; 8% in experiment [2]; 2% in [3]; under 1% in [4]; under 1% in [5]; under 1% in experiment [6]. Also, the Activity in experiment [7] and in [8] was under 1% each time.

For `CSCC[C@H](NC(=O)[C@H](CCSC)NC(=O)[C@@H]1CCCN1C(=O)[C@H](CC(C)C)NC(=O)[C@@H](NC(=O)[C@H](CC(N)=O)NC(=O)[C@H](Cc1ccccc1)NC(=O)[C@@H](NC(=O)[C@@H]1CCCN1)C(C)C)[C@H](C)O)C(=O)NCC(=O)N[C@@H](CCCCN)C(=O)N[C@@H](C)C(=O)N[C@@H](CO)C(=O)N1CCC[C@H]1C(=O)N[C@H](C(=O)Nc1ccc([N+](=O)[O-])cc1)C(C)C`, the Activity in the experiment on Escherichia coli [1] is 18%; in experiment [2], 69%; in experiment [3], under 1%; in experiment [4], under 1%; in [5], 1%; in [6] it was 3%. The Activity in [7] and in [8] was under 1% each time.

On to `N=C(N)NCCC[C@H](NC(=O)c1ccccc1)C(=O)Nc1ccc([N+](=O)[O-])cc1`, for which the Activity in the experiment with Escherichia coli [1] is under 1%; in [2], under 1%; in experiment [3], under 1%; in [4] it was under 1%; in [5], 758%; in experiment [6] it was under 1%. Also, the Activity in [7] is 3%; in experiment [8], 24%.

With `CC[C@H](C)[C@H](N)C(=O)N[C@@H](Cc1c[nH]c2ccccc12)C(=O)N[C@@H](CC(N)=O)C(=O)N[C@H](C(=O)N[C@@H](CC(C)C)C(=O)N[C@@H](CC(N)=O)C(=O)N[C@@H](CO)C(=O)NCC(=O)N[C@@H](CCCNC(=N)N)C(=O)N[C@H](C(=O)N[C@H](C(=O)N1CCC[C@H]1C(=O)NCC(=O)N[C@H](C(=O)NCC(=O)N[C@@H](Cc1cnc[nH]1)C(=O)N[C@@H](C)C(=O)CCl)[C@@H](C)O)C(C)C)C(C)C)[C@@H](C)O` (HELM PEPTIDE1{I.W.N.T.L.N.S.G.R.V.V.P.G.T.G.H.A.[ClC[*:1]]}$$$$V2.0), the Activity was 101% in the experiment with Escherichia coli [9]; 60% in experiment [10]; 15% in experiment [11]; 74% in [12]; 410% in experiment [13]; 78% in [14]. In addition, the Activity in experiment [15] is 98%; in experiment [16] it was 111%.

In the case of `CC(C)C[C@H](NC(=O)CNC(=O)[C@H](C)NC(=O)CNC(=O)[C@@H]1CCCN1C(=O)[C@@H](NC(=O)[C@H](CO)NC(=O)[C@H](C)NC(=O)CNC(=O)[C@@H](N)CCCCN)C(C)C)C(=O)N[C@H](C(=O)Nc1ccc([N+](=O)[O-])cc1)C(C)C` (HELM PEPTIDE1{K.G.A.S.V.P.G.A.G.L.V.[O=[N+]([O-])c1ccc(N[*:1])cc1]}$$$$V2.0), the Activity is under 1% with Escherichia coli [1]; 6% in [2]; under 1% in experiment [3]; under 1% in experiment [4]; under 1% in [5]; under 1% in experiment [6]. For the same molecule, the Activity in experiment [7] and in experiment [8] was under 1% each time.

As to `CC(C)[C@H](NC(=O)[C@@H]1CCCN1C(=O)[C@@H](NC(=O)[C@H](C)NC(=O)CNC(=O)[C@H](CO)NC(=O)CNC(=O)[C@H](CO)NC(=O)[C@H](CC(N)=O)NC(=O)[C@H](CCCCN)NC(=O)CNC(=O)[C@@H](N)CCCCN)[C@@H](C)O)C(=O)Nc1ccc([N+](=O)[O-])cc1` (HELM PEPTIDE1{K.G.K.N.S.G.S.G.A.T.P.V.[O=[N+]([O-])c1ccc(N[*:1])cc1]}$$$$V2.0), the Activity was under 1% in the experiment on Escherichia coli [1]; 74% in experiment [2]; 34% in experiment [3]; under 1% in experiment [4]; under 1% in [5]; 5% in experiment [6]. Further, the Activity in experiment [7] and in experiment [8] was under 1% in each case.

With `CSCC[C@H](NC(=O)[C@H](CCSC)NC(=O)[C@@H]1CCCN1)C(=O)NCC(=O)N[C@@H](CCCCN)C(=O)N[C@@H](C)C(=O)N[C@@H](CO)C(=O)N1CCC[C@H]1C(=O)N[C@H](C(=O)CCl)C(C)C` (HELM PEPTIDE1{P.M.M.G.K.A.S.P.V.[ClC[*:1]]}$$$$V2.0), the Activity with Escherichia coli [9] is 49%; in experiment [10], under 1%; in experiment [11], 5%; in experiment [12], 71%; in experiment [13], 348%; in [14], 53%. Besides, the Activity in [15] was 122%; in experiment [16] it was 108%.

Regarding `CSCC[C@H](NC(=O)[C@H](CCSC)NC(=O)[C@@H]1CCCN1)C(=O)NCC(=O)N[C@@H](CCCCN)C(=O)N[C@@H](C)C(=O)N[C@@H](CO)C(=O)N1CCC[C@H]1C(=O)N[C@H](C(=O)Nc1ccc([N+](=O)[O-])cc1)C(C)C` (HELM PEPTIDE1{P.M.M.G.K.A.S.P.V.[O=[N+]([O-])c1ccc(N[*:1])cc1]}$$$$V2.0), the Activity was 1% in the experiment on Escherichia coli [1]; 96% in experiment [2]; under 1% in [3]; 4% in [4]; under 1% in [5]; under 1% in experiment [6]. The Activity in experiment [7] and in experiment [8] was under 1% each time.

Turning to `CC(C)[C@H](NC(=O)[C@H](CCCNC(=N)N)NC(=O)CNC(=O)[C@@H](N)CO)C(=O)N[C@H](C(=O)N1CCC[C@H]1C(=O)NCC(=O)N[C@@H](Cc1ccc(O)cc1)C(=O)NCC(=O)N[C@@H](Cc1cnc[nH]1)C(=O)N[C@@H](C)C(=O)Nc1ccc([N+](=O)[O-])cc1)C(C)C` (HELM PEPTIDE1{S.G.R.V.V.P.G.Y.G.H.A.[O=[N+]([O-])c1ccc(N[*:1])cc1]}$$$$V2.0), the Activity in the experiment on Escherichia coli [1] is under 1%; in experiment [2], 56%; in [3] it was 2970%; in experiment [4], under 1%; in [5], under 1%; in experiment [6] it was under 1%. Besides, the Activity in experiment [7] and in [8] was under 1% throughout.

Regarding `CSCC[C@H](NC(=O)[C@@H]1CCCN1C(=O)[C@@H](N)CO)C(=O)N[C@@H](Cc1ccccc1)C(=O)N[C@@H](CCCCN)C(=O)NCC(=O)N[C@H](C(=O)Nc1ccc([N+](=O)[O-])cc1)C(C)C` (HELM PEPTIDE1{S.P.M.F.K.G.V.[O=[N+]([O-])c1ccc(N[*:1])cc1]}$$$$V2.0), the Activity in the experiment on Escherichia coli [1] was 18%; in experiment [2], 7%; in experiment [3] it was 3%; in [4], under 1%; in experiment [5], under 1%; in experiment [6], under 1%. The Activity in experiment [7] and in experiment [8] was under 1% in each case.

With `CC(C)[C@H](NC(=O)CNC(=O)CNC(=O)[C@H](CC(=O)O)NC(=O)[C@@H](NC(=O)[C@@H](N)CO)[C@@H](C)O)C(=O)Nc1ccc([N+](=O)[O-])cc1` (HELM PEPTIDE1{S.T.D.G.G.V.[O=[N+]([O-])c1ccc(N[*:1])cc1]}$$$$V2.0), the Activity with Escherichia coli [1] was under 1%; in [2] it was 5%; in experiment [3], under 1%; in experiment [4], 2%; in experiment [5] it was under 1%; in experiment [6] it was under 1%. In addition, the Activity in [7] and in experiment [8] was under 1% in each case.

With `CSCC[C@H](NC(=O)[C@H](CCSC)NC(=O)[C@@H]1CCCN1C(=O)[C@H](CC(C)C)NC(=O)[C@@H](NC(=O)[C@H](CC(N)=O)NC(=O)[C@H](Cc1ccccc1)NC(=O)[C@@H](N)C(C)C)[C@@H](C)O)C(=O)NCC(=O)N[C@@H](CCCCN)C(=O)N[C@@H](C)C(=O)N[C@@H](CO)C(=O)N1CCC[C@H]1C(=O)N[C@H](C(=O)Nc1ccc([N+](=O)[O-])cc1)C(C)C` (HELM PEPTIDE1{V.F.N.T.L.P.M.M.G.K.A.S.P.V.[O=[N+]([O-])c1ccc(N[*:1])cc1]}$$$$V2.0), the Activity in the experiment with Escherichia coli [1] was 32%; in experiment [2] it was 89%; in experiment [3] it was under 1%; in experiment [4], under 1%; in [5], under 1%; in experiment [6], 8%. Moreover, the Activity in experiment [7] and in [8] was under 1% each time.
